Assay results taken from patent US20110306597A1, “Nicotinamide Derivatives” (priority 2008, published 2011).

Biological target: human recombinant H-PGDS (Homo sapiens, UniProt O60760)
Assay: Fluorescence Intensity h-PGDS TBA Enzyme Assay
Assay type: biochemical
Details: 1:175,000 human recombinant H-PGDS, highest inhibitor concentration typically 1 μM
Experimental: Fluorescence Intensity h-PGDSTBA Enzyme Assay
Prostaglandin D Synthase (PGDS) converts the substrate prostaglandin H2 (PGH2) to prostaglandin D2. The depletion of PGH2 was measured via an Fe(II) reduction of the remaining PGH2 to malondialdehyde (MDA) and 12-HHT. The enzyme assay is based on the quantitative formation of a fluorescent complex from the non-fluorescent compounds MDA and 2-thiobarbituric acid (TBA), substantially as described in U.S. patent application publication US-2004/152148 by Lombardt.
The enzyme assay (31 μls) contained 100 mM Tris base pH 8.0, 100 μM MgCl2, 0.1 mg/ml IgG Rabbit serum, 5.0 μM PGH2 (Cayman; ethanol solution, #17020), 2.5 mM L-Glutathione (Sigma; reduced form #G4251), 1:175,000 human recombinant H-PGDS (from 1 mg/ml), 0.5% DMSO and inhibitor (varying concentration). Three μls of diluted inhibitor (dissolved in DMSO) was plated into a 384-well assay plate followed by a 25 μl addition of an enzyme solution containing h-PGDS, Tris, MgCl2, IgG and L-Glutathione. After preincubation of inhibitor and enzyme solution for 10 minutes at room temperature, the reaction was initiated with a 3 μl addition of substrate solution in 10 mM HCl. The reaction was terminated after 42 second by the addition (3 μl) of stop buffer containing FeCl2 and citric acid. After addition of 45.5 μls of TBA plates were heated for one hour in a 70 C oven. Plates were cooled at room temperature overnight and read on a plate reader the next day with excitation @ 530 nm and emission @ 565 nm.
IC50's of inhibitors were calculated with a 4-parameter fit using 11 inhibitor concentrations in duplicate with 3-fold serial dilutions. Controls on each plate included no inhibitor (zero % effect) and an inhibitor 10-fold in excess of its' IC50 (100% effect). The highest inhibitor concentration tested was typically 1 μM.

Chain of human recombinant H-PGDS (O60760 whole entry): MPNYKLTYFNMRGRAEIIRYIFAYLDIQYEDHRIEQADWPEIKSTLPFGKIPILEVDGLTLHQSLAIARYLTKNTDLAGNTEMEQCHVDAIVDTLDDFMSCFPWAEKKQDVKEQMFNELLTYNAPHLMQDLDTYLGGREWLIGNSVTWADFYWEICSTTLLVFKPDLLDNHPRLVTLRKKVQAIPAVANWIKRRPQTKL

| SMILES | IC50 [µM] |
| --- | --- |
| Cc1cccc(-c2ccc(C(=O)NCC(C)(C)CN(C)C)cn2)c1 [Example 242, N-[3-(Dimethylamino)-2,2-dimethylpropyl]-6-(3-methylphenyl)nicotinamide] | 0.3 |
| O=C(NC1C(=O)NCCc2ccccc21)c1ccc(-c2cccc(F)c2)nc1 (stereo not drawn) [Example 120, 6-(3-Fluorophenyl)-N-(2-oxo-2,3,4,5-tetrahydro-1H-3-benzazepin-1-yl)nicotinamide] | 0.0673 |
| COc1cccc(-c2ccc(C(=O)NCc3ccc(Cl)c(Cl)c3)cn2)c1 [Example 483, N-(3,4-Dichlorobenzyl)-6-(3-methoxyphenyl) nicotinamide] | 0.151 |
| CNS(=O)(=O)c1ccc(CNC(=O)c2ccc(-c3cccc(OC)c3)nc2)cc1 [Example 317, 6-(3-Methoxyphenyl)-N-{4-[(methylamino)sulfonyl]benzyl}nicotinamide] | 0.153 |
| COc1cccc(-c2ccc(C(=O)NCCN3CCCCC3=O)cn2)c1 [Example 271, 6-(3-Methoxyphenyl)-N-[2-(2-oxopiperidin-1-yl)ethyl]nicotinamide] | 0.219 |
| O=C(NCCc1ccncc1)c1ccc(-c2ccc(F)cc2)nc1 [Example 264, 6-(4-Fluorophenyl)-N-(2-pyridin-4-ylethyl)nicotinamide] | 0.238 |
| CCOC(=O)CC(NC(=O)c1ccc(-c2ccc(F)cc2)nc1)c1ccccc1 (stereo not drawn) [Example 258, Ethyl 3-({[6-(4-fluorophenyl)pyridin-3-yl]carbonyl}amino)-3-phenylpropanoate] | 0.715 |
| COc1cccc(-c2ccc(C(=O)Nc3cccnc3)cn2)c1 [Example 485, 6-(3-Methoxyphenyl)-N-pyridin-3-ylnicotinamide] | 0.201 |
| COc1cccc(-c2ccc(C(=O)NCc3ccc(-n4cncn4)cc3)cn2)c1 [Example 291, 6-(3-Methoxyphenyl)-N-[4-(1H-1,2,4-triazol-1-yl)benzyl]nicotinamide] | 0.203 |
| COC(=O)CNC(=O)c1ccc(-c2cccc(F)c2)nc1 [Example 173, Methyl N-{[6-(3-fluorophenyl)pyridin-3-yl]carbonyl}glycinate] | 0.082 |
| Cc1ccc(CNC(=O)c2ccc(-c3ccc(F)cc3)nc2)cc1 [Example 480, 6-(4-Fluorophenyl)-N-(4-methylbenzyl)nicotinamide] | 0.327 |
| CS(=O)(=O)Cc1noc(CNC(=O)c2ccc(-c3cccc(F)c3)nc2)n1 [Example 167, 6-(3-Fluorophenyl)-N-({3-[(methylsulfonyl)methyl]-1,2,4-oxadiazol-5-yl}methyl)nicotinamide] | 0.285 |
| Cc1ccc(CN2CCC(NC(=O)c3ccc(-c4cccc(C)c4)nc3)C2=O)cc1 (stereo not drawn) [Example 227, N-[1-(4-Methylbenzyl)-2-oxopyrrolidin-3-yl]-6-(3-methylphenyl)nicotinamide] | 0.0622 |
| CC(C)[C@H](N)C(=O)NC(=O)c1ccc(-c2cccc(F)c2)nc1 [Example 526, 6-(3-Fluorophenyl)-N-L-valylnicotinamide] | 1.51 |
| COc1cccc(-c2ccc(C(=O)Nc3ccccc3)cn2)c1 [Example 308, 6-(3-Methoxyphenyl)-N-phenylnicotinamide] | 0.054 |
| COCCn1cnnc1CNC(=O)c1ccc(-c2cccc(F)c2)nc1 [Example 23, 6-(3-Fluorophenyl)-N-{[4-(2-methoxyethyl)-4H-1,2,4-triazol-3-yl]methyl}nicotinamide] | 0.106 |
| COC(=O)CNC(=O)[C@H](C)NC(=O)c1ccc(-c2cccc(C)c2)nc1 [Example 229, Methyl N-{[6-(3-methylphenyl)pyridin-3-yl]carbonyl}-L-alanylglycinate] | 0.125 |
| COc1cccc(-c2ccc(C(=O)NCCc3cccs3)cn2)c1 [Example 302, 6-(3-Methoxyphenyl)-N-[2-(2-thienyl)ethyl]nicotinamide] | 0.177 |
| O=C(NCc1ccc(F)cc1)c1ccc(-c2ccc(F)cc2)nc1 [Example 482, N-(4-Fluorobenzyl)-6-(4-fluorophenyl)nicotinamide] | 0.527 |
| COc1cc(CNC(=O)c2cnc(-c3cccc(F)c3)c(Cl)c2)cc2c1OCCO2 [Example 548, 5-Chloro-6-(3-fluorophenyl)-N-[(8-methoxy-2,3-dihydro-1,4-benzodioxin-6-yl)methyl]nicotinamide] | 0.0547 |
| CCOC(=O)CC(NC(=O)c1ccc(-c2cccc(OC)c2)nc1)c1ccccc1 (stereo not drawn) [Example 272, Ethyl 3-({[6-(3-methoxyphenyl)pyridin-3-yl]carbonyl}amino)-3-phenylpropanoate] | 0.474 |
| O=C(NCc1ccc(Br)cc1)c1ccc(-c2ccc(F)cc2)nc1 [Example 505, N-(4-Bromobenzyl)-6-(4-fluorophenyl)nicotinamide] | ≥ 1 |
| CCOC(=O)CC[C@H](NC(=O)c1ccc(-c2ccc(F)cc2)nc1)C(=O)OCC [Example 471, Diethyl N-{[6-(4-fluorophenyl)pyridin-3-yl]carbonyl}-L-glutamate] | 0.192 |

These reach a lower IC50. Values come first.

| IC50 [µM] | SMILES |
| --- | --- |
| 0.0141 | COC(=O)c1ccc(CNC(=O)c2ccc(-c3ccccc3)nc2)cc1 [Example 523, Methyl 4-({[(6-phenylpyridin-3-yl)carbonyl]amino}methyl) benzoate] |
| 0.0257 | N#CC(NC(=O)c1ccc(-c2cccc(F)c2)nc1)c1ccccc1 (stereo not drawn) [Example 8, N-[Cyano(phenyl)methyl]-6-(3-fluorophenyl)nicotinamide] |
| 0.0208 | COC(=O)CNC(=O)[C@H](C)NC(=O)c1ccc(-c2cccc(F)c2)nc1 [Example 165, Methyl N-{[6-(3-fluorophenyl)pyridin-3-yl]carbonyl}-L-alanylglycinate] |
| 0.0391 | O=C(NCC1COc2ccccc2C1)c1ccc(-c2cc(F)cc(F)c2)nc1 (stereo not drawn) [Example 542, 6-(3,5-Difluorophenyl)-N-(3,4-dihydro-2H-chromen-3-ylmethyl)nicotinamide] |
| 0.0409 | O=C(NCc1ccco1)c1ccc(-c2cccc(F)c2)nc1 [Example 428, 6-(3-Fluorophenyl)-N-(2-furylmethyl)nicotinamide] |
| 0.0181 | Cc1cccc(-c2ccc(C(=O)NCc3ccc(S(C)(=O)=O)cc3)cn2)c1 [Example 247, 6-(3-Methylphenyl)-N-[4-(methylsulfonyl)benzyl] nicotinamide] |
| 0.0259 | Cc1cccc(-c2ccc(C(=O)NCc3ccc(S(N)(=O)=O)cc3)cn2)c1 [Example 449, N-[4-(Aminosulfonyl)benzyl]-6-(3-methylphenyl)nicotinamide] |
| 0.0163 | CCC1CCN(CCNC(=O)c2ccc(-c3cccc(F)c3)nc2)CC1 [Example 188, N-[2-(4-Ethylpiperidin-1-yl)ethyl]-6-(3-fluorophenyl)nicotinamide] |
| 0.0218 | O=C(NCCNc1ccccc1)c1ccc(-c2cccc(F)c2)nc1 [Example 429, N-(2-Anilinoethyl)-6-(3-fluorophenyl)nicotinamide] |
| 0.0232 | CCOC(=O)CCCNC(=O)c1ccc(-c2ccccc2)nc1 [Example 386, Ethyl 4-{[(6-phenylpyridin-3-yl)carbonyl]amino}butanoate] |
| 0.041 | O=C(CC(NC(=O)c1ccc(-c2cccc(F)c2)nc1)C1CC1)NCC1CC1 (stereo not drawn) [Example 30, N-{1-Cyclopropyl-3-[(cyclopropylmethyl)amino]-3-oxopropyl}-6-(3-fluorophenyl)nicotinamide] |
| 0.0174 | Cc1cccc(-c2ccc(C(=O)NCCC3CCCCO3)cn2)c1 (stereo not drawn) [Example 320, 6-(3-Methylphenyl)-N-[2-(tetrahydro-2H-pyran-2-yl)ethyl]nicotinamide] |
| 0.0145 | COC(=O)CCNC(=O)c1ccc(-c2cccc(F)c2)nc1 [Example 187, Methyl N-{[6-(3-fluorophenyl)pyridin-3-yl]carbonyl}-beta-alaninate] |
| 0.0182 | O=C(NCCN1CCCOC1=O)c1ccc(-c2cccc(F)c2)nc1 [Example 41, 6-(3-Fluorophenyl)-N-[2-(2-oxo-1,3-oxazinan-3-yl)ethyl]nicotinamide] |
| 0.032 | O=C(NCC1(O)CCCC1)c1ccc(-c2cccc(F)c2)nc1 [Example 140, 6-(3-Fluorophenyl)-N-[(1-hydroxycyclopentyl)methyl] nicotinamide] |
| 0.012 | Cc1nc(CCNC(=O)c2cnc(-c3cccc(F)c3)c(Cl)c2)cs1 [Example 544, 5-Chloro-6-(3-fluorophenyl)-N-[2-(2-methyl-1,3-thiazol-4-yl)ethyl]nicotinamide] |
| 0.0198 | Cc1cnc(CN2C(=O)CCC2CCNC(=O)c2ccc(-c3cccc(F)c3)nc2)cn1 (stereo not drawn) [Example 56, 6-(3-Fluorophenyl)-N-(2-{1-[(5-methylpyrazin-2-yl)methyl]-5-oxopyrrolidin-2-yl}ethyl)nicotinamide] |
| 0.0165 | O=C(NC1CCN(Cc2ccc(Cl)c(Cl)c2)C1=O)c1ccc(-c2ccccc2)nc1 (stereo not drawn) [Example 383, N-[1-(3,4-Dichlorobenzyl)-2-oxopyrrolidin-3-yl]-6-phenylnicotinamide] |
| 0.0319 | CC(NC(=O)c1ccc(-c2ccccc2)nc1)c1ccccc1 (stereo not drawn) [Example 516, 6-Phenyl-N-(1-phenylethyl)nicotinamide] |
